Measured values: patent US20160135464A1, “PESTICIDAL COMPOSITIONS AND PROCESSES RELATED THERETO” (Dow AgroSciences LLC, priority 2014, published 2016)

What was measured:
[1] = system: Beet Armyworm (BAW) (Spodoptera exigua); test: Bioassay on beet armyworm (BAW), 128-well diet tray assay, percent mortality; format: in vivo; settings: for pest or weed control at 50 µg/cm2, 50 µg/cm2: Spodoptera exigua, 50 μg/cm^2
Protocol: (§1) Certain molecules disclosed in this document were tested against BAW and CEW using procedures described in the following examples. In the reporting of the results, the “BAW & CEW Rating Table” was used (See Table Section).
Bioassays on BAW (Spodoptera exigua)
Bioassays on BAW were conducted using a 128-well diet tray assay. One to five second instar BAW larvae were placed in each well (3 mL) of the diet tray that had been previously filled with 1 mL of artificial diet to which 50 μg/cm^2 of the test compound (dissolved in 50 μL of 90:10 acetone-water mixture) had been applied (to each of eight wells) and then allowed to dry. Trays were covered with a clear self-adhesive cover and held at 25° C., 14:10 light-dark for five to seven days. Percent mortality was recorded for the larvae in each well; activity in the eight wells was then averaged. The results are indicated in the table entitled “Table 5: Biological Results” (See Table Section).

[2] = system: Corn Earworm (CEW) (Helicoverpa zea); test: Bioassay on corn earworm (CEW), 128-well diet tray assay, percent mortality; format: in vivo; settings: for pest or weed control at 50 µg/cm2, 50 µg/cm2: Helicoverpa zea, 50 μg/cm^2
Protocol: as §1
Bioassays on CEW (Helicoverpa zea)
Bioassays on CEW were conducted using a 128-well diet tray assay. One to five second instar CEW larvae were placed in each well (3 mL) of the diet tray that had been previously filled with 1 mL of artificial diet to which 50 μg/cm^2 of the test compound (dissolved in 50 μL of 90:10 acetone-water mixture) had been applied (to each of eight wells) and then allowed to dry. Trays were covered with a clear self-adhesive cover and held at 25° C., 14:10 light-dark for five to seven days. Percent mortality was recorded for the larvae in each well; activity in the eight wells was then averaged. The results are indicated in the table entitled “Table 5: Biological Results” (See Table Section).

CC(C)c1ccccc1N1C(=NN=Cc2ccc(-c3ncn(-c4ccc(OC(F)(F)F)cc4)n3)cc2)SCC1(O)C(F)(F)F (stereo in doubt) [Compound 246C, (Z)-3-(2-isopropylphenyl)-2-((E)-(4-(1-(4-(trifluoromethoxy)phenyl)-1H-1,2,4-triazol-3-yl)benzylidene)hydrazono)-4-(trifluoromethyl)thiazolidin-4-ol]
pest or weed control at 50 µg/cm2, 50 µg/cm2 [1]: 50 to 100% | pest or weed control at 50 µg/cm2, 50 µg/cm2 [2]: 50 to 100%

Cc1cccc(C)c1/N=C(/N/N=C/c1ccc(-c2ncn(-c3ccc(OC(F)(F)F)cc3)n2)cc1)SCC#C[Si](C)(C)C [Compound 9C]
% Mortality BAW 50 μg/cm^2 [1]: A (50-100) | % Mortality CEW 50 μg/cm^2 [2]: A (50-100)

COCCOC(C)C(=O)OCS/C(=N\c1c(C)cccc1C)N/N=C/c1ccc(-c2ncn(-c3ccc(OC(F)(F)F)cc3)n2)cc1 (stereo not drawn) [Compound 41C]
pest or weed control at 50 µg/cm2, 50 µg/cm2 [1]: 50 to 100% | pest or weed control at 50 µg/cm2, 50 µg/cm2 [2]: 50 to 100%

COCCOC(C)C(=O)OCS/C(=N\c1c(C)cc(OC)cc1C)N/N=C/c1ccc(-c2ncn(-c3ccc(OC(F)(F)F)cc3)n2)cc1 (stereo not drawn) [Compound 42C]
pest or weed control at 50 µg/cm2, 50 µg/cm2 [1]: 50 to 100% | pest or weed control at 50 µg/cm2, 50 µg/cm2 [2]: 50 to 100%

COc1cc(C)c(/N=C(/N/N=C/c2ccc(-c3ncn(-c4ccc(OC(F)(F)C(F)(F)F)cc4)n3)cc2)SCC(=O)O)c(C)c1 [Compound 50C]
pest or weed control at 50 µg/cm2, 50 µg/cm2 [1]: 50 to 100% | pest or weed control at 50 µg/cm2, 50 µg/cm2 [2]: 50 to 100%

COc1cc(C)c(N2C(=O)CS/C2=N\N=C\c2ccc(-c3ncn(-c4ccc(OC(F)(F)F)cc4)n3)cc2)c(C)c1 [Compound 69C]
pest or weed control at 50 µg/cm2, 50 µg/cm2 [1]: 50 to 100% | pest or weed control at 50 µg/cm2, 50 µg/cm2 [2]: 50 to 100%

CCN(CC)c1ccc(-c2cs/c(=N\N=Cc3ccc(-c4ncn(-c5ccc(OC(F)(F)F)cc5)n4)cc3)n2-c2c(C)cccc2C)cc1 [Compound 74C, 4-((2Z)-3-(2,6-dimethylphenyl)-2-((4-(1-(4-(trifluoromethoxy)phenyl)-1H-1,2,4-triazol-3-yl)benzylidene)hydrazono)-2,3-dihydrothiazol-4-yl)-N,N-diethylaniline]
pest or weed control at 50 µg/cm2, 50 µg/cm2 [1]: 50 to 100% | pest or weed control at 50 µg/cm2, 50 µg/cm2 [2]: 50 to 100%

COc1ccc(N2C(=O)CS/C2=N\N=C\c2ccc(-c3ncn(-c4ccc(OC(F)(F)F)cc4)n3)cc2)cc1 [Compound 114C]
pest or weed control at 50 µg/cm2, 50 µg/cm2 [1]: 50 to 100% | pest or weed control at 50 µg/cm2, 50 µg/cm2 [2]: 50 to 100%

CC1S/C(=N\N=C\c2ccc(-c3ncn(-c4ccc(OC(F)(F)F)cc4)n3)cc2)N(c2c(F)cccc2Cl)C1=O (stereo not drawn) [Compound 130C]
pest or weed control at 50 µg/cm2, 50 µg/cm2 [1]: 50 to 100% | pest or weed control at 50 µg/cm2, 50 µg/cm2 [2]: 50 to 100%

Cc1cccc(C)c1N1CCS/C1=N\N=C\c1ccc(-c2ncn(-c3ccc(OC(F)(F)F)cc3)n2)cc1 [Compound 141C]
pest or weed control at 50 µg/cm2, 50 µg/cm2 [1]: 50 to 100% | pest or weed control at 50 µg/cm2, 50 µg/cm2 [2]: 50 to 100%

Cc1ccccc1-n1c(C)cs/c1=N\N=C\c1ccc(-c2ncn(-c3ccc(OC(F)(F)F)cc3)n2)cc1 [Compound 173C]
pest or weed control at 50 µg/cm2, 50 µg/cm2 [1]: 50 to 100% | pest or weed control at 50 µg/cm2, 50 µg/cm2 [2]: 50 to 100%

CC(C)c1ccccc1N1CCCCC/S1=N\N=C\c1ccc(-c2ncn(-c3ccc(OC(F)(F)F)cc3)n2)cc1 (stereo not drawn) [Compound 212C]
pest or weed control at 50 µg/cm2, 50 µg/cm2 [1]: 50 to 100% | pest or weed control at 50 µg/cm2, 50 µg/cm2 [2]: 50 to 100%

CC1(O)CS/C(=N\N=C\c2ccc(-c3ncn(-c4ccc(OC(F)(F)F)cc4)n3)cc2)N1c1c(F)cccc1F (stereo not drawn) [Compound 240C]
pest or weed control at 50 µg/cm2, 50 µg/cm2 [1]: 50 to 100% | pest or weed control at 50 µg/cm2, 50 µg/cm2 [2]: 50 to 100%

CC1(O)CS/C(=N\c2c(Cl)cccc2C(F)(F)F)N1/N=C/c1ccc(-c2ncn(-c3ccc(OC(F)(F)F)cc3)n2)cc1 (stereo not drawn) [Compound 241C, (Z)-2-((2-chloro-6-(trifluoromethyl)phenyl)imino)-4-methyl-3-((E)-(4-(1-(4-(trifluoromethoxy)phenyl)-1H-1,2,4-triazol-3-yl)benzylidene)amino)thiazolidin-4-ol]
pest or weed control at 50 µg/cm2, 50 µg/cm2 [1]: 50 to 100% | pest or weed control at 50 µg/cm2, 50 µg/cm2 [2]: 50 to 100%

Cc1cccc(Cl)c1N1/C(=N/N=C/c2ccc(-c3ncn(-c4ccc(OC(F)(F)F)cc4)n3)cc2)SCC1(C)O (stereo not drawn) [Compound 244C]
pest or weed control at 50 µg/cm2, 50 µg/cm2 [1]: 50 to 100% | pest or weed control at 50 µg/cm2, 50 µg/cm2 [2]: 50 to 100%

CCC(C)c1ccccc1N1/C(=N/N=C/c2ccc(-c3ncn(-c4ccc(OC(F)(F)F)cc4)n3)cc2)SCC1(O)C(F)(F)F (stereo not drawn) [Compound 247C]
pest or weed control at 50 µg/cm2, 50 µg/cm2 [1]: 50 to 100% | pest or weed control at 50 µg/cm2, 50 µg/cm2 [2]: 50 to 100%

CC1(O)CS/C(=N\N=C\c2ccc(-c3ncn(-c4ccc(OC(F)(F)F)cc4)n3)cc2)N1c1ccccc1C1CCCC1 (stereo not drawn) [Compound 249C]
pest or weed control at 50 µg/cm2, 50 µg/cm2 [1]: 50 to 100% | pest or weed control at 50 µg/cm2, 50 µg/cm2 [2]: 50 to 100%

Cc1cccc(N2/C(=N/N=C/c3ccc(-c4ncn(-c5ccc(OC(F)(F)F)cc5)n4)cc3)SCC2(C)O)c1C(C)C (stereo not drawn) [Compound 252C]
pest or weed control at 50 µg/cm2, 50 µg/cm2 [1]: 50 to 100% | pest or weed control at 50 µg/cm2, 50 µg/cm2 [2]: 50 to 100%

Cc1ccc(C(C)C)c(N2/C(=N/N=C/c3ccc(-c4ncn(-c5ccc(OC(F)(F)F)cc5)n4)cc3)SCC2(C)O)c1 (stereo not drawn) [Compound 253C]
pest or weed control at 50 µg/cm2, 50 µg/cm2 [1]: 50 to 100% | pest or weed control at 50 µg/cm2, 50 µg/cm2 [2]: 50 to 100%

COc1cc(C)c(N2/C(=N/N=C/c3ccc(-c4ncn(-c5ccc(OC(F)(F)F)cc5)n4)cc3)SCC2(C)O)c(C)c1 (stereo not drawn) [Compound 255C]
pest or weed control at 50 µg/cm2, 50 µg/cm2 [1]: 50 to 100% | pest or weed control at 50 µg/cm2, 50 µg/cm2 [2]: 50 to 100%

CC(C)c1ccccc1N1/C(=N/N=C/c2ccc(-c3ncn(-c4ccc(OC(F)(F)F)cc4)n3)cc2)SC(C)C1(C)O (stereo not drawn) [Compound 257C]
pest or weed control at 50 µg/cm2, 50 µg/cm2 [1]: 50 to 100% | pest or weed control at 50 µg/cm2, 50 µg/cm2 [2]: 50 to 100%

CC(C)c1cc(F)ccc1N1/C(=N/N=C/c2ccc(-c3ncn(-c4ccc(OC(F)(F)F)cc4)n3)cc2)SCC1(C)O (stereo not drawn) [Compound 258C]
pest or weed control at 50 µg/cm2, 50 µg/cm2 [1]: 50 to 100% | pest or weed control at 50 µg/cm2, 50 µg/cm2 [2]: 50 to 100%

CC(C)c1cc(F)c(F)cc1N1/C(=N/N=C/c2ccc(-c3ncn(-c4ccc(OC(F)(F)F)cc4)n3)cc2)SCC1(C)O (stereo not drawn) [Compound 259C]
pest or weed control at 50 µg/cm2, 50 µg/cm2 [1]: 50 to 100% | pest or weed control at 50 µg/cm2, 50 µg/cm2 [2]: 50 to 100%

CC(C)c1ccccc1N1/C(=N/N=C/c2ccc(-c3ncn(-c4ccc(C(F)(C(F)(F)F)C(F)(F)F)cc4)n3)cc2)SCC1(C)O (stereo not drawn) [Compound 260C]
pest or weed control at 50 µg/cm2, 50 µg/cm2 [1]: 50 to 100% | pest or weed control at 50 µg/cm2, 50 µg/cm2 [2]: 50 to 100%

CC(C)c1ccccc1N1/C(=N/N=C/c2ccc(-c3ncn(-c4ccc(C(F)(F)F)cc4)n3)cc2)SCC1(C)O (stereo not drawn) [Compound 261C]
pest or weed control at 50 µg/cm2, 50 µg/cm2 [1]: 50 to 100% | pest or weed control at 50 µg/cm2, 50 µg/cm2 [2]: 50 to 100%

CCc1cc(OC)ccc1N1/C(=N/N=C/c2ccc(-c3ncn(-c4ccc(OC(F)(F)C(F)(F)F)cc4)n3)cc2)SCC1(C)O (stereo not drawn) [Compound 264C]
pest or weed control at 50 µg/cm2, 50 µg/cm2 [1]: 50 to 100%
